Test results published in US20250388568A1, “NLRP3 INHIBITORS” (Kodiak Sciences Inc., priority 2022, published 2025).
Where two headings read alike, the source gives them in different places.

How the values were obtained:
[1] = tested on: IL-1β release in THP-1-ASC-GFP cells after NLRP3 activation; assay: IC50 determination of IL-1β release inhibition in THP-1-ASC-GFP cells; format: cell-based; conditions: THP1-ASC-GFP, read-out: IL-1β IC50 (nM) THP1 cells
Protocol: Example 78: IC50 Determination of IL-1β Release Inhibition in THP-1-ASC-GFP Cells The compounds were tested for their ability to inhibit the IL-1β release in the THP-1-ASC-GFP cells after NLRP3 activation. THP1-ASC-GFP cells (Invivogen […] thawed following Invivogen's initial culture procedure. […] The growth medium was composed of RPM1640 medium (Gibco 32404-014), 10% heat inactivated (HI) serum (Gibco A3840102), Pen/Strep (Quality Biologics 118-089-721), 10 mM Hepes (Quality Biologics 118-089-721), 2 mM Glutamax (GIBCO 35050-061), 100 μg/mL normocin (Invivogen ant-nr), 100 μg/mL Zeocin (Invivogen ant-zn). The growth medium was freshly prepared once a week and sterile filtered. Assay medium consisted of RPMI 1640 medium, 10 mM Hepes, 2 mM Glutamax and Pen/Strep. To the assay medium, 1 μg/mL LPS (Invivogen tlrl-3pelps) was added. A cell suspension was prepared with assay medium and LPS at 1.25M cells per mL. With an electronic pipet, 80 μl of cell suspension was added to U bottom 96 well polystyrene plates (VWR 10062-902) leaving columns 1 and 2 empty. The plates were placed in the incubator for 4 hours. […] DMSO). An hour prior to the end of LPS incubation, a separate 96 deep well plate, Plate B, was prepared with 400 μL of assay media per well, then 2 μL of the stock DMSO solution from Plate A was added to each corresponding well. Plate B was covered to avoid media evaporation. In a 50 mL tube, a solution of nigericin in assay media at […] concentration was prepared. To a new 96 deep well plate, Plate C, 200 μL of this nigericin containing media was dispensed to each well and […] of the test compounds from Plate A to each corresponding well was added. Plate C was covered to avoid media evaporation. After 4 hours of priming, all the media from the LPS treated THP-1 cells in the initial U bottom plate was removed manually. To this plate of primed cells, 80 μL/well test compounds from Plate B was added in duplicate columns (5 compounds tested per plate). The plate was placed in an incubator for 30 min. […] The plate was placed back in the incubator for 1 hour. At the end of 1 hour, the supernatant from this test plate was transferred to a new 96 well V bottom polypropylene plate which was frozen immediately at -80° C. The plate was transferred to -20° C. the next day and awaiting further determination of cytokine IL-1β level. The release of IL-1β into the cell media was determined by MSD® Multi-Spot Assay System (V-Plex, IL-1B kit, […]-4). Following the manufacture's protocol and using the Alternate Protocol 3, Dilute-In-Plate protocol specifically, the level of IL-1β in the above collected supernatant plate was measured as electrochemiluminescent signals. Using MSD DISCOVERY WORKBENCH® analysis software, the signals were converted to the concentration of IL-1β in each well. The IC50 values of the compounds were calculated using the Graph Pad Prism software based on the […] concentration determined. The detection range of IL-1β using MSD kit was approximately […] (based on various lots of standards purchased from MSD).

[2] = tested on: IL-1β release in U937 cells after NLRP3 activation; assay: IC50 determination of IL-1β release inhibition in U937 cells; format: cell-based; conditions: Homo sapiens, read-out: IL-1β IC50 (nM) U937 cells
Protocol: Example 79: IC50 Determination of IL-1β Release Inhibition in U937 Cells The compounds of the present disclosure were tested for their ability to inhibit the IL-1β release in the U937 cells after NLRP3 activation. U937 cells (U-97 CRL 1593.2) were thawed following ATCC's initial culture procedure. […] The growth medium was composed of RPMI1640 medium (Quality Biological 112-040-101), 10% serum (Corning 35-076-CV), Pen/Strep (GIBCO 15140-122), 10 mM Hepes (Quality Biological 118-089-721), 2 mM Glutamax (GIBCO 35050-061), and 100 μg/mL normocin (Invivogen ant-nr)-Differentiating media was prepared by adding Phorbol 12-myristate 13-acetate (PMA) (AdipoGen AG-CN2-0010-M005) to growth medium. A cell suspension was prepared with differentiating media at 500k cells/ml. With an electronic pipet, 200 ul of cell suspension was added to each well (96w white plate Corning 3903) leaving columns 1 and 2 empty. Plates were left in the biosafety cabinet for 15 min and then placed in incubator for 90 hours. Priming media was prepared with assay medium consisting of RPMI 1640 medium, 10 mM Hepes, 2 mM Glutamax and Pen/Strep plus 1 μg/mL LPS (Invivogen tlrl-3pelps). Differentiating media was manually removed and 80 ul of priming media was added to each well with an electronic pipet. The plates were placed in the incubator for 5 hours. […] DMSO). An hour prior to the end of LPS incubation, a separate 96 deep well plate, Plate B, was prepared with 400 μL of assay media per well, then […] of the stock DMSO solution from Plate A was added to each corresponding well. Plate B was covered to avoid media evaporation. In a 50 mL tube, a solution of nigericin in assay media at 50 uM/mL concentration was prepared. To a new 96 deep well plate, Plate C, 200 μL of this nigericin containing media was dispensed to each well and 1 μL of the test compounds from Plate B to each corresponding well was added. Plate C was covered to avoid media evaporation. After 5 hours of priming, all the media from the LPS treated U937 cells was removed manually. To this plate of primed cells, 80 μL/well test compounds from Plate B (assay media+compound) was added in duplicate columns (5 compounds tested per plate). The plate was placed in an incubator for 30 min. […] The plate was placed back in the incubator for 1 hour. At the end of 1 hour, the supernatant from this test plate was transferred to a new 96 well V bottom polypropylene plate which was frozen immediately at -80° C. The plate was transferred to -20° C. the next day and awaited further determination of cytokine IL-Ip level. The release of IL-1β into the cell media was determined by MSD® Multi-Spot Assay System (V-Plex, IL-1B kit, […]-4). Following the manufacture's protocol and using the Alternate Protocol 3, Dilute-In-Plate protocol specifically, the level of IL-IP in the above collected supernatant plate was measured as electrochemiluminescent signals. Using MSD DISCOVERY WORKBENCH® analysis software, the signals were converted to the concentration of IL-1β in each well. The IC50 values of the compounds were calculated using the Graph Pad Prism software based on the IL-1β concentration determined. The detection range of IL-1β using MSD kit was approximately […] (based on various lots of standards purchased from MSD).

[3] = THP-1-ASC-GFP cells, LPS priming 4 h, nigericin, average of at least three experiments
[4] = U-937, PMA-differentiated U937 cells, LPS priming 5 h, nigericin, average of at least three experiments

SMILES | IC50 [1, 3] [nM] | IC50 [2, 4] [nM] | IC50 ([1]; 4 h) [nM] | IC50 ([2]; U-937, 5 h) [nM]
Cn1nc(S(=O)(=O)NC(=O)Nc2c3c(c(F)c4c2CCC4)CCC3)cc1CN1CCC[C@@H]1CO [Example 63, (R)-N-((8-fluoro-1,2,3,5,6,7-hexahydro-s-indacen-4-yl)carbamoyl)-5-((2-(hydroxymethyl)pyrrolidin-1-yl)methyl)-1-methyl-1 H-pyrazole-3-sulfonamide] | 5 to 50 | 5 to 50 | – | –
Cc1oc(S(=O)(=O)NC(=O)Nc2c3c(c(F)c4c2CCC4)CCC3)cc1CN1C[C@H](O)[C@@H](F)C1 [Example 41, N-((8-fluoro-1,2,3,5,6,7-hexahydro-s-indacen-4-yl)carbamoyl)-4-(((3S,4S)-3-fluoro-4-hydroxypyrrolidin-1-yl)methyl)-5-methylfuran-2-sulfonamide] | 5 to 50 | 5 to 50 | – | –
Cc1oc(S(=O)(=O)NC(=O)Nc2c3c(c(F)c4c2CCC4)CCC3)cc1CN1CCC[C@H]1CO [Example 44, (S)-N-((8-fluoro-1,2,3,5,6,7-hexahydro-s-indacen-4-yl)carbamoyl)-4-((2-(hydroxymethyl)pyrrolidin-1-yl)methyl)-5-methylfuran-2-sulfonamide] | 5 to 50 | 5 to 50 | – | –
O=C(Nc1c2c(cc3c1CCC3)CCC2)NS(=O)(=O)c1cc2c(o1)CCNC2 [Example 73, N-((1,2,3,5,6,7-hexahydro-s-indacen-4-yl)carbamoyl)-4,5,6,7-tetrahydrofuro[3,2-c]pyridine-2-sulfonamide] | 5 to 50 | 5 to 50 | – | –
CC(O)c1cc(S(=O)(=O)NC(=O)Nc2c3c(c(F)c4c2CCC4)CCC3)oc1CN1CCNCC1 (stereo not shown) [Example 72, N-((8-fluoro-1,2,3,5,6,7-hexahydro-s-indacen-4-yl)carbamoyl)-4-(1-hydroxyethyl)-5-(piperazin-1-ylmethyl)furan-2-sulfonamide] | 5 to 50 | 5 to 50 | – | –
Cc1oc(S(=N)(=O)NC(=O)Nc2c3c(cc4c2CCC4)CCC3)cc1CNC(C)C (stereo not shown) [Example 25, N-((1,2,3,5,6,7-hexahydro-s-indacen-4-yl)carbamoyl)-4-((isopropylamino)methyl)-5-methylfuran-2-sulfonimidamide] | – | – | < 5 | < 5
Cc1oc(S(=O)(=O)NC(=O)Nc2c3c(c(F)c4c2CCC4)CCC3)cc1CN1CCC[C@@H]1CO [Example 45, (R)-N-((8-fluoro-1,2,3,5,6,7-hexahydro-s-indacen-4-yl)carbamoyl)-4-((2-(hydroxymethyl)pyrrolidin-1-yl)methyl)-5-methylfuran-2-sulfonamide] | < 5 | 5 to 50 | – | –
Cc1oc(S(=O)(=O)NC(=O)Nc2c3c(c(F)c4c2CCC4)CCC3)cc1CN1C[C@@H](O)[C@H](F)C1 [Example 43, N-((8-fluoro-1,2,3,5,6,7-hexahydro-s-indacen-4-yl)carbamoyl)-4-(((3R,4R)-3-fluoro-4-hydroxypyrrolidin-1-yl)methyl)-5-methylfuran-2-sulfonamide] | < 5 | 5 to 50 | – | –
Cc1oc(S(=N)(=O)NC(=O)Nc2c3c(c(F)c4c2CCC4)CCC3)cc1CN1CC(O)C1 (stereo not shown) [Example 14, N-((8-fluoro-1,2,3,5,6,7-hexahydro-s-indacen-4-yl)carbamoyl)-4-((3-hydroxyazetidin-1-yl)methyl)-5-methylfuran-2-sulfonimidamide] | < 5 | 5 to 50 | – | –

Now from value to compound, other results behind:

IC50 [1, 3] [nM] | IC50 [2, 4] [nM] | SMILES | IC50 ([1]; 4 h) [nM] | IC50 ([2]; U-937, 5 h) [nM]
< 5 | < 5 | Cc1oc(S(=N)(=O)NC(=O)Nc2c3c(cc4c2CCC4)CCC3)cc1CN1CCC[C@H]1CO (stereo partly drawn) [Example 8, N-((1,2,3,5,6,7-hexahydro-s-indacen-4-yl)carbamoyl)-4-(((S)-2-(hydroxymethyl)pyrrolidin-1-yl)methyl)-5-methylfuran-2-sulfonimidamide] | – | –
< 5 | 5 to 50 | Cc1oc(S(=O)(=O)NC(=O)Nc2c3c(c(Cl)c4c2CCC4)CCC3)cc1CN(C)CC1(O)CCC1 [Example 48, N-((8-chloro-1,2,3,5,6,7-hexahydro-s-indacen-4-yl)carbamoyl)-4-((((1-hydroxycyclobutyl)methyl)(methyl)amino)methyl)-5-methylfuran-2-sulfonamide] | – | –
< 5 | < 5 | Cc1oc(S(=N)(=O)NC(=O)Nc2c3c(cc4c2CCC4)CCC3)cc1CN1CCC[C@@H]1CO (stereo partly drawn) [Example 7, N-((1,2,3,5,6,7-hexahydro-s-indacen-4-yl)carbamoyl)-4-(((R)-2-(hydroxymethyl)pyrrolidin-1-yl)methyl)-5-methylfuran-2-sulfonimidamide] | – | –
< 5 | < 5 | CN(CC1(O)CCC1)C(=O)c1coc(S(=N)(=O)NC(=O)Nc2c3c(cc4c2CCC4)CCC3)c1 (stereo not shown) [Example 4, 5-(N-((1,2,3,5,6,7-hexahydro-s-indacen-4-yl)carbamoyl)sulfamidimidoyl)-N-((1-hydroxycyclobutyl)methyl)-N-methylfuran-3-carboxamide] | – | –
< 5 | < 5 | Cc1oc(S(=N)(=O)NC(=O)Nc2c3c(cc4c2CCC4)CCC3)cc1CN(C)CC1(O)CCC1 (stereo not shown) [Example 12, N-((1,2,3,5,6,7-hexahydro-s-indacen-4-yl)carbamoyl)-4-((((1-hydroxycyclobutyl)methyl)(methyl)amino)methyl)-5-methylfuran-2-sulfonimidamide] | – | –
